± gives the expanded uncertainty stated by the source.
Test: mn = molality of the nth substance listed, in mol/kg
Conditions: 101 kPa, Liquid

CCCCCCn1cc[n+](C)c1.[Br-] [3-hexyl-1-methyl-1H-imidazolium bromide] + O
Conditions | mass density, 293.15 K [kg/m3] | mass density, 298.15 K [kg/m3] | mass density, 303.15 K [kg/m3] | speed of sound, 293.15 K [m/s] | speed of sound, 298.15 K [m/s] | speed of sound, 303.15 K [m/s]
m1 = 0.0042 | – | 997.246 ± 0.5 | 995.843 ± 0.51 | – | 1497.5 ± 2.9 | 1509.8 ± 3
m1 = 0.0048 | – | 997.266 ± 0.5 | 995.864 ± 0.51 | – | 1497.5 ± 2.9 | 1509.8 ± 3
m1 = 0.0067 | – | 997.351 ± 0.5 | 995.948 ± 0.51 | – | 1497.7 ± 2.9 | 1510.1 ± 3
m1 = 0.0081 | – | 997.413 ± 0.5 | 996.006 ± 0.51 | – | 1497.7 ± 2.9 | 1510.1 ± 3
m1 = 0.0139 | – | 997.679 ± 0.5 | 996.267 ± 0.51 | – | 1498.6 ± 3 | 1510.8 ± 3
m1 = 0.0295 | – | 998.405 ± 0.49 | 996.983 ± 0.5 | – | 1500.5 ± 3 | 1512.6 ± 3
m1 = 0.0369 | – | 998.754 ± 0.49 | 997.324 ± 0.5 | – | 1500.6 ± 3 | 1512.5 ± 3
m1 = 0.0487 | – | 999.3 ± 0.49 | 997.863 ± 0.5 | – | 1502.2 ± 3 | 1514 ± 3
m1 = 0.064 | – | 999.994 ± 0.49 | 998.545 ± 0.49 | – | 1504.1 ± 3 | 1515.7 ± 3
m1 = 0.073 | – | 1000.4 ± 0.49 | 998.942 ± 0.49 | – | 1505.2 ± 3 | 1516.7 ± 3
m1 = 0.094 | – | 1001.35 ± 0.5 | 999.878 ± 0.49 | – | 1507.8 ± 3 | 1519.2 ± 3
m1 = 0.1183 | – | 1002.44 ± 0.5 | 1000.95 ± 0.49 | – | 1510.9 ± 3 | 1522 ± 3
m1 = 0.1423 | – | 1003.53 ± 0.51 | 1002.01 ± 0.5 | – | 1513.9 ± 3 | 1524.7 ± 3
m1 = 0.1639 | 1005.77 ± 0.53 | 1004.47 ± 0.52 | 1002.94 ± 0.51 | 1504.1 ± 3 | 1516.3 ± 3 | 1526.9 ± 3
m1 = 0.2206 | 1008.31 ± 0.54 | 1006.95 ± 0.53 | 1005.38 ± 0.52 | 1511.2 ± 3 | 1522.8 ± 3 | 1532.7 ± 3
m1 = 0.2581 | 1009.94 ± 0.55 | 1008.55 ± 0.55 | 1006.95 ± 0.54 | 1515.6 ± 3 | 1526.7 ± 3 | 1536.2 ± 3
m1 = 0.3034 | 1011.93 ± 0.57 | 1010.5 ± 0.56 | 1008.86 ± 0.55 | 1521 ± 3 | 1531.6 ± 3 | 1540.7 ± 3
m1 = 0.3543 | 1014.08 ± 0.58 | 1012.61 ± 0.57 | 1010.93 ± 0.56 | 1526.7 ± 3 | 1536.8 ± 3 | 1545.3 ± 3
m1 = 0.3874 | 1015.53 ± 0.59 | 1014.03 ± 0.58 | 1012.32 ± 0.57 | 1530.4 ± 3 | 1540.1 ± 3 | 1548.2 ± 3
m1 = 0.4492 | 1018.13 ± 0.61 | 1016.57 ± 0.6 | 1014.81 ± 0.59 | 1536.4 ± 3 | 1545.4 ± 3 | 1552.9 ± 3
m1 = 0.6269 | 1025.28 ± 0.67 | 1023.56 ± 0.66 | 1021.66 ± 0.65 | 1553.8 ± 3 | 1561 ± 3.1 | 1566.8 ± 3.1
m1 = 0.8614 | 1034.03 ± 0.74 | 1032.12 ± 0.73 | 1030.03 ± 0.71 | 1571.3 ± 3.1 | 1576.3 ± 3.1 | 1580.2 ± 3.1
m1 = 1.001 | 1038.8 ± 0.78 | 1036.78 ± 0.77 | 1034.6 ± 0.75 | 1579.6 ± 3.1 | 1583.5 ± 3.1 | 1586.5 ± 3.1
m1 = 1.321 | 1049.03 ± 0.87 | 1046.8 ± 0.85 | 1044.42 ± 0.84 | 1593.4 ± 3.1 | 1595.6 ± 3.1 | 1596.9 ± 3.1
m1 = 1.739 | 1060.74 ± 0.98 | 1058.31 ± 0.96 | 1055.74 ± 0.95 | 1604.1 ± 3.2 | 1604.8 ± 3.2 | 1604.7 ± 3.2
m1 = 2.087 | 1069.36 ± 1.1 | 1066.78 ± 1 | 1064.09 ± 1 | 1609.6 ± 3.2 | 1609.4 ± 3.2 | 1608.4 ± 3.2
